From ChEMBL document CHEMBL3885881, “DrugMatrix”

Organism: Rattus norvegicus
Assay: DrugMatrix - Regimen: Daily Repeat
Type: toxicity, organism-based, Sprague-Dawley
Parameters: regimen Daily Repeat, gender Male, age 6-8 weeks
Conditions: in vivo, po, route oral GAVAGE, vehicle 100 % WATER; for ABSOLUTE BASOPHIL / ABSOLUTE EOSINOPHIL / ABSOLUTE LYMPHOCYTE / ABSOLUTE MONOCYTE / ABSOLUTE SEGMENTED NEUTROPHIL / BASOPHIL / EOSINOPHIL / ERYTHROCYTE COUNT / HEMATOCRIT / HEMOGLOBIN / LEUKOCYTE COUNT / LYMPHOCYTE / MEAN CORPUSCULAR HEMOGLOBIN / MEAN CORPUSCULAR HEMOGLOBIN CONCENTRATION / MEAN CORPUSCULAR VOLUME / MONOCYTE / NEUTROPHIL / NUCLEATED RED BLOOD CELLS / PLATELET COUNT: tissue Blood; for ALANINE AMINOTRANSFERASE / ALBUMIN / ALKALINE PHOSPHATASE / ASPARTATE AMINOTRANSFERASE / BLOOD UREA NITROGEN / CARBON DIOXIDE / CHLORIDE / CHOLESTEROL / CREATINE PHOSPHOKINASE / CREATININE / GLUCOSE / LACTATE DEHYDROGENASE / LIPASE / PHOSPHORUS / POTASSIUM / SODIUM / TOTAL BILIRUBIN / TOTAL PROTEIN / URIC ACID: tissue Plasma
[1] = 11 mg/kg, 120 h, dose level Low, time 5 day
[2] = 1100 mg/kg, 72 h, dose level High, time 3 day
[3] = 1100 mg/kg, 120 h, dose level High, time 5 day

Question: Which “ABSOLUTE BASOPHIL” value [1] does the source give for `CNS(=O)(=O)Cc1ccc2[nH]cc(CCN(C)C)c2c1` here?
Answer: 0 CELLS/uL

Question: What about the “ABSOLUTE EOSINOPHIL” value [1] of the same molecule?
Answer: 33.33 CELLS/uL

Question: And the “ABSOLUTE LYMPHOCYTE” value [1]?
Answer: 13548.33 CELLS/uL

Question: And the “ABSOLUTE MONOCYTE” value [1]?
Answer: 177 CELLS/uL

Question: And the “ABSOLUTE SEGMENTED NEUTROPHIL” value [1]?
Answer: 608 CELLS/uL

Question: And the BASOPHIL [1]?
Answer: 0%

Question: What about the EOSINOPHIL [1] of the same molecule?
Answer: 0.33%

Question: What about the “ERYTHROCYTE COUNT” value [1] of the same molecule?
Answer: 5.94 x10E6/uL

Question: What about the HEMATOCRIT [1] of the same molecule?
Answer: 38.1%

Question: And the HEMOGLOBIN [1]?
Answer: 14.67 G/DL

Question: What about the “LEUKOCYTE COUNT” value [1] of the same molecule?
Answer: 14.37 x10E3/uL

Question: And the LYMPHOCYTE [1]?
Answer: 94%

Question: And the “MEAN CORPUSCULAR HEMOGLOBIN” value [1]?
Answer: 24.67 pg

Question: What about the “MEAN CORPUSCULAR HEMOGLOBIN CONCENTRATION” value [1] of the same molecule?
Answer: 38.53 G/DL

Question: What about the “MEAN CORPUSCULAR VOLUME” value [1] of the same molecule?
Answer: 64.03 fL

Question: What about the MONOCYTE [1] of the same molecule?
Answer: 1.33%

Question: What about the NEUTROPHIL [1] of the same molecule?
Answer: 4.33%

Question: What about the “NUCLEATED RED BLOOD CELLS” value [1] of the same molecule?
Answer: 0 /100WBC

Question: And the “PLATELET COUNT” value [1]?
Answer: 1140 x10E3/uL

Question: What about the “ALANINE AMINOTRANSFERASE” value [1] of the same molecule?
Answer: 51 u/L

Question: What about the ALBUMIN [1] of the same molecule?
Answer: 4.23 G/DL

Question: And the “ALKALINE PHOSPHATASE” value [1]?
Answer: 398.33 u/L

Question: What about the “ASPARTATE AMINOTRANSFERASE” value [1] of the same molecule?
Answer: 85.33 u/L

Question: And the “BLOOD UREA NITROGEN” value [1]?
Answer: 15.67 mg/dL

Question: And the “CARBON DIOXIDE” value [1]?
Answer: 31.67 mmol/L

Question: And the CHLORIDE [1]?
Answer: 101.67 MEQ/L

Question: What about the CHOLESTEROL [1] of the same molecule?
Answer: 66 mg/dL

Question: And the “CREATINE PHOSPHOKINASE” value [1]?
Answer: 235 u/L

Question: What about the CREATININE [1] of the same molecule?
Answer: 0.17 mg/dL

Question: And the GLUCOSE [1]?
Answer: 139.67 mg/dL

Question: What about the “LACTATE DEHYDROGENASE” value [1] of the same molecule?
Answer: 145 u/L

Question: What about the LIPASE [1] of the same molecule?
Answer: 10.33 u/L

Question: And the PHOSPHORUS [1]?
Answer: 11.03 mg/dL

Question: And the POTASSIUM [1]?
Answer: 6.19 MEQ/L

Question: And the SODIUM [1]?
Answer: 146.47 MEQ/L

Question: And the “TOTAL BILIRUBIN” value [1]?
Answer: 0.17 mg/dL

Question: What about the “TOTAL PROTEIN” value [1] of the same molecule?
Answer: 6.37 G/DL

Question: And the “URIC ACID” value [1]?
Answer: 0.83 mg/dL

Question: And the “ABSOLUTE BASOPHIL” value [2]?
Answer: 0 CELLS/uL

Question: And the “ABSOLUTE EOSINOPHIL” value [2]?
Answer: 0 CELLS/uL

Question: And the “ABSOLUTE LYMPHOCYTE” value [2]?
Answer: 8603 CELLS/uL

Question: What about the “ABSOLUTE MONOCYTE” value [2] of the same molecule?
Answer: 74.33 CELLS/uL

Question: What about the “ABSOLUTE SEGMENTED NEUTROPHIL” value [2] of the same molecule?
Answer: 922.67 CELLS/uL

Question: What about the BASOPHIL [2] of the same molecule?
Answer: 0%

Question: What about the EOSINOPHIL [2] of the same molecule?
Answer: 0%

Question: What about the “ERYTHROCYTE COUNT” value [2] of the same molecule?
Answer: 5.83 x10E6/uL

Question: And the HEMATOCRIT [2]?
Answer: 35.8%

Question: And the HEMOGLOBIN [2]?
Answer: 13.87 G/DL

Question: What about the “LEUKOCYTE COUNT” value [2] of the same molecule?
Answer: 9.6 x10E3/uL

Question: And the LYMPHOCYTE [2]?
Answer: 89.67%

Question: What about the “MEAN CORPUSCULAR HEMOGLOBIN” value [2] of the same molecule?
Answer: 23.8 pg

Question: And the “MEAN CORPUSCULAR HEMOGLOBIN CONCENTRATION” value [2]?
Answer: 38.73 G/DL

Question: What about the “MEAN CORPUSCULAR VOLUME” value [2] of the same molecule?
Answer: 61.43 fL

Question: What about the MONOCYTE [2] of the same molecule?
Answer: 0.67%

Question: What about the NEUTROPHIL [2] of the same molecule?
Answer: 9.67%

Question: And the “NUCLEATED RED BLOOD CELLS” value [2]?
Answer: 0 /100WBC

Question: What about the “PLATELET COUNT” value [2] of the same molecule?
Answer: 1087.33 x10E3/uL

Question: And the “ALANINE AMINOTRANSFERASE” value [2]?
Answer: 50.33 u/L

Question: What about the ALBUMIN [2] of the same molecule?
Answer: 4.07 G/DL

Question: And the “ALKALINE PHOSPHATASE” value [2]?
Answer: 367.67 u/L

Question: What about the “ASPARTATE AMINOTRANSFERASE” value [2] of the same molecule?
Answer: 86 u/L

Question: And the “BLOOD UREA NITROGEN” value [2]?
Answer: 12.67 mg/dL

Question: What about the “CARBON DIOXIDE” value [2] of the same molecule?
Answer: 30 mmol/L

Question: What about the CHLORIDE [2] of the same molecule?
Answer: 101.67 MEQ/L

Question: What about the CHOLESTEROL [2] of the same molecule?
Answer: 70.33 mg/dL

Question: And the “CREATINE PHOSPHOKINASE” value [2]?
Answer: 362.67 u/L

Question: What about the CREATININE [2] of the same molecule?
Answer: 0.2 mg/dL

Question: What about the GLUCOSE [2] of the same molecule?
Answer: 136.67 mg/dL

Question: And the “LACTATE DEHYDROGENASE” value [2]?
Answer: 189.67 u/L

Question: And the LIPASE [2]?
Answer: 10.33 u/L

Question: And the PHOSPHORUS [2]?
Answer: 10.73 mg/dL

Question: What about the POTASSIUM [2] of the same molecule?
Answer: 5.86 MEQ/L

Question: What about the SODIUM [2] of the same molecule?
Answer: 145.13 MEQ/L

Question: And the “TOTAL BILIRUBIN” value [2]?
Answer: 0.13 mg/dL

Question: What about the “TOTAL PROTEIN” value [2] of the same molecule?
Answer: 6.13 G/DL

Question: And the “URIC ACID” value [2]?
Answer: 0.7 mg/dL

Question: And the “ABSOLUTE BASOPHIL” value [3]?
Answer: 0 CELLS/uL

Question: What about the “ABSOLUTE EOSINOPHIL” value [3] of the same molecule?
Answer: 40.67 CELLS/uL

Question: And the “ABSOLUTE LYMPHOCYTE” value [3]?
Answer: 8480 CELLS/uL

Question: What about the “ABSOLUTE MONOCYTE” value [3] of the same molecule?
Answer: 117.33 CELLS/uL

Question: And the “ABSOLUTE SEGMENTED NEUTROPHIL” value [3]?
Answer: 862 CELLS/uL

Question: What about the BASOPHIL [3] of the same molecule?
Answer: 0%

Question: What about the EOSINOPHIL [3] of the same molecule?
Answer: 0.33%

Question: What about the “ERYTHROCYTE COUNT” value [3] of the same molecule?
Answer: 5.92 x10E6/uL

Question: What about the HEMATOCRIT [3] of the same molecule?
Answer: 37.33%

Question: And the HEMOGLOBIN [3]?
Answer: 14.3 G/DL

Question: What about the “LEUKOCYTE COUNT” value [3] of the same molecule?
Answer: 9.5 x10E3/uL

Question: And the LYMPHOCYTE [3]?
Answer: 89.67%

Question: What about the “MEAN CORPUSCULAR HEMOGLOBIN” value [3] of the same molecule?
Answer: 24.2 pg

Question: What about the “MEAN CORPUSCULAR HEMOGLOBIN CONCENTRATION” value [3] of the same molecule?
Answer: 38.27 G/DL

Question: What about the “MEAN CORPUSCULAR VOLUME” value [3] of the same molecule?
Answer: 63.17 fL

Question: What about the MONOCYTE [3] of the same molecule?
Answer: 1%

Question: What about the NEUTROPHIL [3] of the same molecule?
Answer: 9%

Question: What about the “NUCLEATED RED BLOOD CELLS” value [3] of the same molecule?
Answer: 0 /100WBC

Question: And the “PLATELET COUNT” value [3]?
Answer: 1190.33 x10E3/uL

Question: And the “ALANINE AMINOTRANSFERASE” value [3]?
Answer: 47.67 u/L

Question: And the ALBUMIN [3]?
Answer: 4.07 G/DL

Question: And the “ALKALINE PHOSPHATASE” value [3]?
Answer: 329 u/L

Question: What about the “ASPARTATE AMINOTRANSFERASE” value [3] of the same molecule?
Answer: 87.67 u/L

Question: And the “BLOOD UREA NITROGEN” value [3]?
Answer: 15.67 mg/dL

Question: And the “CARBON DIOXIDE” value [3]?
Answer: 31 mmol/L

Question: And the CHLORIDE [3]?
Answer: 100 MEQ/L

Question: What about the CHOLESTEROL [3] of the same molecule?
Answer: 65.67 mg/dL

Question: What about the “CREATINE PHOSPHOKINASE” value [3] of the same molecule?
Answer: 337 u/L

Question: And the CREATININE [3]?
Answer: 0.17 mg/dL

Question: And the GLUCOSE [3]?
Answer: 135.33 mg/dL

Question: And the “LACTATE DEHYDROGENASE” value [3]?
Answer: 119.67 u/L

Question: What about the LIPASE [3] of the same molecule?
Answer: 10.33 u/L

Question: What about the PHOSPHORUS [3] of the same molecule?
Answer: 9.67 mg/dL

Question: What about the POTASSIUM [3] of the same molecule?
Answer: 6.24 MEQ/L

Question: And the SODIUM [3]?
Answer: 145.07 MEQ/L

Question: And the “TOTAL BILIRUBIN” value [3]?
Answer: 0.2 mg/dL

Question: What about the “TOTAL PROTEIN” value [3] of the same molecule?
Answer: 6.2 G/DL

Question: And the “URIC ACID” value [3]?
Answer: 0.83 mg/dL
